One may read the IC50 as the concentration that inhibits the measured activity by half. High values mean lower potency, low ones higher potency.

The assay can be described thus: Inhibition of Escherichia coli DXR by spectrophotometric method.

On to `O=CN(O)CCCP(=O)(O)O` [FOSMIDOMYCIN], for which 30 nM corresponded to half-maximal inhibition (IC50).
